Settings: 600 mg QD (n=10)
Experimental: Dose adjustment was allowed according to the severity of toxicity [Supplementary Table 1].
The primary endpoints were safety, ORR and DCR assessed by investigators. […] AEs referred to treatment-emergent adverse events (TEAEs) and TRAEs were assessed by investigators. Serious adverse events (SAEs) referred to AEs meeting at least one of the following criteria: event leading to death; life-threatening event; event requiring hospitalization or extension of hospital stay; event leading to persistent or evident disability or dysfunction; event leading to congenital malformation or birth defect or event which might lead to injury or that need medical treatment to avoid the above mentioned important medical events.

O=C(Nc1ccc(Oc2ccnc3c2CCN3)c(F)c1)c1c[nH]cc(-c2ccc(F)cc2)c1=O
TRAE Decreased Ccr, any grade: 2 (20.0) n (%) | TRAE Decreased Ccr, grade 3-4: 0 n (%) | TRAE Decreased appetite, any grade: 1 (10.0) n (%) | TRAE Decreased appetite, grade 3-4: 1 (10.0) n (%) | TRAE Diarrhoea, any grade: 1 (10.0) n (%) | TRAE Diarrhoea, grade 3-4: 0 n (%) | TRAE Dizziness, any grade: 0 n (%) | TRAE Dizziness, grade 3-4: 0 n (%) | TRAE Dry mouth, any grade: 0 n (%) | TRAE Dry mouth, grade 3-4: 0 n (%) | TRAE Dysgeusia, any grade: 5 (50.0) n (%) | TRAE Dysgeusia, grade 3-4: 1 (10.0) n (%) | TRAE Dyskinesia, any grade: 1 (10.0) n (%) | TRAE Dyskinesia, grade 3-4: 1 (10.0) n (%) | TRAE Dysphonia, any grade: 1 (10.0) n (%) | TRAE Dysphonia, grade 3-4: 0 n (%) | TRAE Dyspnoea, any grade: 1 (10.0) n (%) | TRAE Dyspnoea, grade 3-4: 1 (10.0) n (%) | TRAE Electrocardiogram QT prolonged, any grade: 0 n (%) | TRAE Electrocardiogram QT prolonged, grade 3-4: 0 n (%) | TRAE Elevated ALT, any grade: 3 (30.0) n (%) | TRAE Elevated ALT, grade 3-4: 0 n (%) | TRAE Elevated AST, any grade: 1 (10.0) n (%) | TRAE Elevated AST, grade 3-4: 0 n (%) | TRAE Elevated D dimer, any grade: 1 (10.0) n (%) | TRAE Elevated D dimer, grade 3-4: 0 n (%) | TRAE Elevated GGT, any grade: 0 n (%) | TRAE Elevated GGT, grade 3-4: 0 n (%) | TRAE Elevated LDH, any grade: 0 n (%) | TRAE Elevated LDH, grade 3-4: 0 n (%) | TRAE Elevated alpha-HBDH, any grade: 0 n (%) | TRAE Elevated alpha-HBDH, grade 3-4: 0 n (%) | TRAE Elevated bilirubin, any grade: 2 (20.0) n (%) | TRAE Elevated bilirubin, grade 3-4: 0 n (%) | TRAE Elevated blood creatinine, any grade: 1 (10.0) n (%) | TRAE Elevated blood creatinine, grade 3-4: 0 n (%) | TRAE Elevated creatine phosphokinase, any grade: 0 n (%) | TRAE Elevated creatine phosphokinase, grade 3-4: 0 n (%) | TRAE Elevated serum urea, any grade: 0 n (%) | TRAE Elevated serum urea, grade 3-4: 0 n (%) | TRAE Elevated troponin, any grade: 0 n (%) | TRAE Elevated troponin, grade 3-4: 0 n (%) | TRAE Genital rash, any grade: 1 (10.0) n (%) | TRAE Genital rash, grade 3-4: 0 n (%) | TRAE Haematuria, any grade: 0 n (%) | TRAE Haematuria, grade 3-4: 0 n (%) | TRAE Headache, any grade: 0 n (%) | TRAE Headache, grade 3-4: 0 n (%) | TRAE Hyperhidrosis, any grade: 0 n (%) | TRAE Hyperhidrosis, grade 3-4: 0 n (%) | TRAE Hyperlipidaemia, any grade: 0 n (%) | TRAE Hyperlipidaemia, grade 3-4: 0 n (%) | TRAE Hypertension, any grade: 2 (20.0) n (%) | TRAE Hypertension, grade 3-4: 1 (10.0) n (%) | TRAE Hypoaesthesia oral, any grade: 0 n (%) | TRAE Hypoaesthesia oral, grade 3-4: 0 n (%) | TRAE Hypocalcaemia, any grade: 1 (10.0) n (%) | TRAE Hypocalcaemia, grade 3-4: 0 n (%) | TRAE Hypotension, any grade: 0 n (%) | TRAE Hypotension, grade 3-4: 0 n (%) | TRAE Insomnia, any grade: 0 n (%) | TRAE Insomnia, grade 3-4: 0 n (%) | TRAE Leukopenia, any grade: 1 (10.0) n (%) | TRAE Leukopenia, grade 3-4: 0 n (%) | TRAE Nausea, any grade: 0 n (%) | TRAE Nausea, grade 3-4: 0 n (%) | TRAE Neuritis, any grade: 2 (20.0) n (%) | TRAE Neuritis, grade 3-4: 0 n (%) | TRAE Occult blood, any grade: 1 (10.0) n (%) | TRAE Occult blood, grade 3-4: 0 n (%) | TRAE Oedema peripheral, any grade: 1 (10.0) n (%) | TRAE Oedema peripheral, grade 3-4: 0 n (%) | TRAE Onycholysis, any grade: 0 n (%) | TRAE Onycholysis, grade 3-4: 0 n (%) | TRAE Oropharyngeal pain, any grade: 1 (10.0) n (%) | TRAE Oropharyngeal pain, grade 3-4: 1 (10.0) n (%) | TRAE PPE, any grade: 1 (10.0) n (%) | TRAE PPE, grade 3-4: 0 n (%) | TRAE Paraesthesia, any grade: 0 n (%) | TRAE Paraesthesia, grade 3-4: 0 n (%) | TRAE Proteinuria, any grade: 1 (10.0) n (%) | TRAE Proteinuria, grade 3-4: 0 n (%) | TRAE Pruritus, any grade: 0 n (%) | TRAE Pruritus, grade 3-4: 0 n (%)

Reference: PMC10088252
